Experimental data taken from patent publication US20150141381A1, “TETRACYCLINE COMPOUNDS HAVING TARGET THERAPEUTIC ACTIVITIES” (Paratek Pharmaceuticals, Inc., priority 2001, published 2015).
Where two headings read alike, the source gives them in different places.

Legend:
S. aureus RN450 = assay: In Vitro Anti-Bacterial Activity Assay (MIC), gram positive; assay type: cell-based; details: for MIC: Staphylococcus aureus, RN450, 18 h
E. coli mL308 225 = assay: In Vitro Anti-Bacterial Activity Assay (MIC), gram negative; assay type: cell-based; details: for MIC: Escherichia coli, ML308225, 18 h
[1] = MIC class, Table 3, read-out: Antibiotic Activity Gram +
[2] = MIC class, Table 3, read-out: Antibiotic Activity Gram −
[3] = MIC class, Table 3 (Continued), read-out: Gram+ activity
[4] = MIC class, Table 3 (Continued), read-out: Gram− activity
[5] = gram positive bacteria, read-out: Antibiotic Activity Gram + (MIC)
[6] = gram negative bacteria, read-out: Antibiotic Activity Gram − (MIC)

Structure (SMILES) | MIC (S. aureus RN450; [1]) [µg/mL] | MIC (E. coli mL308 225; [2]) [µg/mL] | MIC (S. aureus RN450; [5]) [µg/mL] | MIC (E. coli mL308 225; [6]) [µg/mL] | further results
COC(=O)/C=C/c1ccc(O)c2c1C[C@H]1C[C@H]3[C@H](N(C)C)C(O)=C(C(N)=O)C(=O)[C@@]3(O)C(O)=C1C2=O [NJ] | < 4 | > 4 |  |  | 
CO/N=C(\C)c1ccc(O)c2c1C[C@H]1C[C@H]3[C@H](N(C)C)C(O)=C(C(N)=O)C(=O)[C@@]3(O)C(O)=C1C2=O [EU] | < 4 | < 4 |  |  | 
CN(C)[C@@H]1C(O)=C(C(N)=O)C(=O)[C@@]2(O)C(O)=C3C(=O)c4c(O)ccc(-c5ccoc5)c4C[C@H]3C[C@@H]12 [drawing 3287] |  |  |  |  | MIC (S. aureus RN450; [3]): < 4 µg/mL; MIC (E. coli mL308 225; [4]): < 4 µg/mL
CN(C)c1cc(CNCCC(F)(F)F)c(O)c2c1C[C@H]1C[C@H]3[C@H](N(C)C)C(O)=C(C(N)=O)C(=O)[C@@]3(O)C(O)=C1C2=O [drawing 3671] |  |  | < 4 | < 4 | 
CCN(CC)c1ccc(-c2c[nH]c(Nc3ccc4c(c3O)C(=O)C3=C(O)[C@]5(O)C(=O)C(C(N)=O)=C(O)[C@@H](N(C)C)[C@@H]5[C@@H](O)[C@@H]3[C@H]4C)n2)cc1 |  |  |  |  | MIC (S. aureus RN450; [3]): < 4 µg/mL; MIC (E. coli mL308 225; [4]): > 4 µg/mL
COCc1ccc(O)c2c1C[C@H]1C[C@H]3[C@H](N(C)C)C(O)=C(C(N)=O)C(=O)[C@@]3(O)C(O)=C1C2=O |  |  | < 4 | < 4 | 
CN(C)c1cc(-c2ccc(CN3CCN(CCO)CC3)o2)c(O)c2c1C[C@H]1C[C@H]3[C@H](N(C)C)C(O)=C(C(N)=O)C(=O)[C@@]3(O)C(O)=C1C2=O |  |  | < 4 | > 4 | 
CN(C)[C@@H]1C(O)=C(C(N)=O)C(=O)[C@@]2(O)C(O)=C3C(=O)c4c(O)ccc(-c5ccc(C(C)(C)C)cc5)c4C[C@H]3C[C@@H]12 [drawing 3426] |  |  | < 4 | < 4 | 
CN(C)[C@@H]1C(O)=C(C(N)=O)C(=O)[C@@]2(O)C(O)=C3C(=O)c4c(O)ccc(-c5ccc(F)c(C=O)c5)c4C[C@H]3C[C@@H]12 |  |  | < 4 | < 4 | 
CN(C)c1cc(NCc2ccc(O)c(O)c2)c(O)c2c1C[C@H]1C[C@H]3[C@H](N(C)C)C(O)=C(C(N)=O)C(=O)[C@@]3(O)C(O)=C1C2=O |  |  | < 4 | > 4 | 
CN(C)[C@@H]1C(O)=C(C(N)=O)C(=O)[C@@]2(O)C(O)=C3C(=O)c4c(O)ccc(-c5ccc(CO)cc5)c4C[C@H]3C[C@@H]12 |  |  | < 4 | < 4 | 
CN(C)[C@@H]1C(O)=C(C(N)=O)C(=O)[C@@]2(O)C(O)=C3C(=O)c4c(ccc(CNCC(C)(C)C)c4O)C[C@H]3C[C@@H]12 [MZ] | < 4 | < 4 |  |  | 
CCCN(CCC)Cc1ccc(-c2ccc(O)c3c2C[C@H]2C[C@H]4[C@H](N(C)C)C(O)=C(C(N)=O)C(=O)[C@@]4(O)C(O)=C2C3=O)c2ccccc12 |  |  | < 4 | < 4 | 
CC(C)COC(=O)NCc1cc(N(C)C)c2c(c1O)C(=O)C1=C(O)[C@]3(O)C(=O)C(C(N)=O)=C(O)[C@H](N(C)C)[C@@H]3C[C@@H]1C2 [EQ] | < 4 | > 4 |  |  | 
CCCCOC(=O)c1ccc(O)c2c1C[C@H]1C[C@H]3[C@H](N(C)C)C(O)=C(C(N)=O)C(=O)[C@@]3(O)C(O)=C1C2=O |  |  | < 4 | < 4 | 
CN(C)[C@@H]1C(O)=C(C(N)=O)C(=O)[C@@]2(O)C(O)=C3C(=O)c4c(O)ccc(-n5cccn5)c4C[C@H]3C[C@@H]12 |  |  | < 4 | < 4 | 
Cc1cc(CNCc2cc(N(C)C)c3c(c2O)C(=O)C2=C(O)[C@]4(O)C(=O)C(C(N)=O)=C(O)[C@@H](N(C)C)[C@@H]4C[C@@H]2C3)oc1C [LC] | < 4 | < 4 |  |  | 
CC(=O)c1ccc(-c2ccc(O)c3c2C[C@H]2C[C@H]4[C@H](N(C)C)C(O)=C(C(N)=O)C(=O)[C@@]4(O)C(O)=C2C3=O)cc1 |  |  |  |  | MIC (S. aureus RN450; [3]): < 4 µg/mL; MIC (E. coli mL308 225; [4]): < 4 µg/mL
CN(CCCC(F)(F)F)Cc1cc(N(C)C)c2c(c1O)C(=O)C1=C(O)[C@]3(O)C(=O)C(C(N)=O)=C(O)[C@@H](N(C)C)[C@@H]3C[C@@H]1C2 |  |  | < 4 | < 4 | 
COc1ccc(CN(C)C)cc1-c1cc(C(C)(C)C)c(O)c2c1C[C@H]1C[C@H]3[C@H](N(C)C)C(O)=C(C(N)=O)C(=O)[C@@]3(O)C(O)=C1C2=O |  |  | < 4 | > 4 | 

Structure (SMILES) | MIC (S. aureus RN450; [1]) [µg/mL] | MIC (E. coli mL308 225; [2]) [µg/mL] | MIC (S. aureus RN450; [5]) [µg/mL] | MIC (E. coli mL308 225; [6]) [µg/mL] | further results
CN(C)c1cc(NC(=O)Oc2ccccc2)c(O)c2c1C[C@H]1C[C@H]3[C@H](N(C)C)C(O)=C(C(N)=O)C(=O)[C@@]3(O)C(O)=C1C2=O [DT] |  |  |  |  | MIC (S. aureus RN450; read-out: Antibiotic Activity Gram +): > 4 µg/mL; MIC (E. coli mL308 225; read-out: Antibiotic Activity Gram −): > 4 µg/mL
CN(C)[C@@H]1C(O)=C(C(N)=O)C(=O)[C@@]2(O)C(O)=C3C(=O)c4c(O)ccc(CCc5ccccn5)c4C[C@H]3C[C@@H]12 [BY] | < 4 | > 4 |  |  | 
Cc1cnc(N)n1Cc1cc(N(C)C)c2c(c1O)C(=O)C1=C(O)[C@]3(O)C(=O)C(C(N)=O)=C(O)[C@@H](N(C)C)[C@@H]3C[C@@H]1C2 [drawing 3712] |  |  |  |  | Antibiotic Activity Gram + (MIC) (S. aureus RN450; gram positive bacteria): * (compounds with an MIC of greater than 4 μg/ml are indicated with *); Antibiotic Activity Gram − (MIC) (E. coli mL308 225; gram negative bacteria): * (compounds with an MIC of greater than 4 μg/ml are indicated with *)
COc1ccc(-c2ccc3c(c2O)C(=O)C2=C(O)[C@]4(O)C(=O)C(C(N)=O)=C(O)[C@@H](N(C)C)[C@@H]4[C@@H](O)[C@@H]2[C@H]3C)cc1CC1CCCC1 |  |  | > 4 | > 4 | 
CC(C)ONC(C)c1ccc(O)c2c1C[C@H]1C[C@H]3[C@H](N(C)C)C(O)=C(C(N)=O)C(=O)[C@@]3(O)C(O)=C1C2=O (stereo partly drawn) |  |  | < 4 | < 4 | 
CN(C)C1C(O)=C(C(N)=O)C(=O)[C@@]2(O)C(O)=C3C(=O)c4c(O)ccc(-c5ccc(CNCc6ccccc6)o5)c4C[C@H]3C[C@@H]12 (stereo partly drawn) [LL] | < 4 | < 4 |  |  | 
CCN(CC)Cc1ccc(O)c2c1C[C@H]1C[C@H]3[C@@H](N(C)C)C(O)=C(C(N)=O)C(=O)[C@@]3(O)C(O)=C1C2=O [KI] | < 4 | < 4 |  |  | 
COC(=O)C(CO)NC(=O)c1cccc(-c2ccc(O)c3c2C[C@H]2C[C@H]4[C@H](N(C)C)C(O)=C(C(N)=O)C(=O)[C@@]4(O)C(O)=C2C3=O)c1 (stereo partly drawn) |  |  | < 4 | > 4 | 
CN(C)c1ccc(O)c2c1C[C@H]1C[C@H]3[C@H](N(C)C)C(O)=C(C#N)C(=O)[C@@]3(O)C(O)=C1C2=O |  |  | > 4 | > 4 | 
CCc1cc(NCC(C)C)c(O)c2c1C[C@H]1C[C@H]3[C@H](N(C)C)C(O)=C(C(N)=O)C(=O)[C@@]3(O)C(O)=C1C2=O |  |  | < 4 | < 4 | 
CN(C)[C@@H]1C(O)=C(C(N)=O)C(=O)[C@@]2(O)C(O)=C3C(=O)c4c(O)ccc(-c5ccc(CN6CCCC6)cc5)c4C[C@H]3C[C@@H]12 [JZ] | < 4 | < 4 |  |  | 
CC(C)CNCc1ccc2c(c1O)C(=O)C1=C(O)[C@]3(O)C(=O)C(C(N)=O)=C(O)[C@@H](N(C)C)[C@@H]3[C@@H](O)[C@@H]1[C@H]2C [JH] | < 4 | < 4 |  |  | 
CN(C)c1cc(-c2ccc(C(=O)O)cc2)c(O)c2c1C[C@H]1C[C@H]3[C@@H](N(C)C)C(O)=C(C(N)=O)C(=O)[C@@]3(O)C(O)=C1C2=O [AP] | > 4 | > 4 |  |  | 
CCc1cc(N(C)C)c2c(c1O)C(=O)C1=C(O)[C@]3(O)C(=O)C(C(N)=O)=C(O)C(N(C)C)[C@@H]3C[C@@H]1C2 (stereo partly drawn) [IA] | < 4 | > 4 |  |  | 
CC(=O)Nc1cc(-c2ccccn2)c2c(c1O)C(=O)C1=C(O)[C@]3(O)C(=O)C(C(N)=O)=C(O)[C@@H](N(C)C)[C@@H]3C[C@@H]1C2 |  |  | < 4 | > 4 | 
COC1CCN(Cc2cc(N(C)C)c3c(c2O)C(=O)C2=C(O)[C@]4(O)C(=O)C(C(N)=O)=C(O)[C@@H](N(C)C)[C@@H]4C[C@@H]2C3)CC1 |  |  | < 4 | < 4 | 
CN(C)[C@@H]1C(O)=C(C(N)=O)C(=O)[C@@]2(O)C(O)=C3C(=O)c4c(O)ccc(-c5ccc(CNCC(F)(F)F)cc5)c4C[C@H]3C[C@@H]12 [drawing 3506] |  |  |  |  | Antibiotic Activity Gram + (MIC) (S. aureus RN450; gram positive bacteria): ** (compounds with MIC less than or equal to 4 μg/ml are indicated with **); Antibiotic Activity Gram − (MIC) (E. coli mL308 225; gram negative bacteria): ** (compounds with MIC less than or equal to 4 μg/ml are indicated with **)
CN(C)[C@@H]1C(O)=C(C(N)=O)C(=O)[C@@]2(O)C(O)=C3C(=O)c4c(O)ccc(C#Cc5ccc(N)cc5)c4C[C@H]3C[C@@H]12 [BE] | < 4 | > 4 |  |  | 
CN(C)c1cc(NCc2ccc([N+](=O)[O-])cc2)c(O)c2c1C[C@H]1C[C@H]3[C@H](N(C)C)C(O)=C(C(N)=O)C(=O)[C@@]3(O)C(O)=C1C2=O |  |  | < 4 | > 4 | 
